Measurements: ChEMBL document CHEMBL3734724, “Anticancer efficacy of unique pyridine-based tetraindoles” (Eur J Med Chem, 2015)
pIC50: −log10 of the molar value. The source made the active and inactive calls. No cut-off for these calls is given here.

How the values were obtained:
MDA-MB-231 [1] = assay: Cell cycle arrest in human MDA-MB-231 cells assessed as accumulation at G0/G1 phase at 1.6 uM after 48 hrs by propidium iodide staining-based flow cytometric analysis (reference value: 57.8 +/- 0.7%); assay type: functional
MDA-MB-231 [2] = assay: Downregulation of cyclin A protein expression in human MDA-MB-231 cells at 0.4 to 3.2 uM after 48 hrs by Western blot analysis relative to control; assay type: functional, cell-based
MDA-MB-231 [3] = assay: Cell cycle arrest in human MDA-MB-231 cells assessed as accumulation at sub-G1 phase at 0.8 uM after 48 hrs by propidium iodide staining-based flow cytometric analysis relative to control; assay type: functional
[4] = Cytotoxicity against human BT549 cells assessed as growth inhibition after 48 hrs by MTT assay; assay type: functional, cell-based; conditions: BT-549, 48 h
[5] = Cytotoxicity against human M10 cells assessed as growth inhibition after 48 hrs by MTT assay; assay type: cell-based; conditions: M10, 48 h
Mus musculus = assay: Toxicity in nude mouse xenografted with luciferase-expressing human MDA-MB-231 cells assessed as change in body weight at 10 to 25 mg/kg, ip administered every other day measured weekly up to day 54 relative to vehicle-treated control; assay type: organism-based; conditions: in vivo
MDA-MB-231 [6] = assay: Cell cycle arrest in human MDA-MB-231 cells assessed as accumulation at G0/G1 phase at 0.4 uM after 48 hrs by propidium iodide staining-based flow cytometric analysis (reference value: 57.8 +/- 0.7%); assay type: functional
MDA-MB-231 [7] = assay: Cell cycle arrest in human MDA-MB-231 cells assessed as accumulation at sub-G1 phase at 0.4 uM after 24 hrs by propidium iodide staining-based flow cytometric analysis relative to control; assay type: functional
MDA-MB-231 [8] = assay: Cell cycle arrest in human MDA-MB-231 cells assessed as accumulation at G2/M phase at 0.8 uM after 24 hrs by propidium iodide staining-based flow cytometric analysis (reference value: 12 +/- 2%); assay type: functional
MCF7 = assay: Cytotoxicity against human MCF7 cells assessed as growth inhibition after 48 hrs by MTT assay; assay type: functional, cell-based; conditions: MCF7, 48 h
MDA-MB-231 [9] = assay: Cell cycle arrest in human MDA-MB-231 cells assessed as accumulation at sub-G1 phase at 0.8 uM after 24 hrs by propidium iodide staining-based flow cytometric analysis relative to control; assay type: functional
MDA-MB-231 [10] = assay: Downregulation of Bcl-xL protein expression in human MDA-MB-231 cells after 48 hrs by Western blot analysis; assay type: functional, cell-based
MDA-MB-231 [11] = assay: Induction of DNA damage in human MDA-MB-231 cells after 48 hrs by alkaline comet assay; assay type: functional, cell-based
MDA-MB-231 [12] = assay: Cell cycle arrest in human MDA-MB-231 cells assessed as accumulation at S phase at 0.8 uM after 24 hrs by propidium iodide staining-based flow cytometric analysis (reference value: 32 +/- 4%); assay type: functional

Oc1ccc2[nH]cc(C(c3ccc(C(c4c[nH]c5ccc(O)cc45)c4c[nH]c5ccc(O)cc45)nc3)c3c[nH]c4ccc(O)cc34)c2c1
Activity (MDA-MB-231 [1]): 45%
Activity (MDA-MB-231 [2]): Active
Activity (MDA-MB-231 [3]): 12%
pIC50 [4]: 5.40
pIC50 [5]: < 4.70
Activity (Mus musculus): Non-toxic
Activity (MDA-MB-231 [6]): 54%
Activity (MDA-MB-231 [7]): 0.1%
Activity (MDA-MB-231 [8]): 14.7%
pIC50 (MCF7): 4.85
Activity (MDA-MB-231 [9]): 1.5%
Activity (MDA-MB-231 [10]): Dose-dependent effect
Activity (MDA-MB-231 [11]): Dose-dependent effect
Activity (MDA-MB-231 [12]): 31%
